According to the kinase profiling compilation of Christmann-Franck et al. (2016):

Columns and labels:
Experiment in all cases: split-luciferase competition binding
PRKCE (human) = PRKCE (human) (UniProt Q02156); conditions: compound 10.0 µM
PRKCQ (human) = PRKCQ (human) (UniProt Q04759); conditions: compound 10.0 µM
SGK3 (human) = SGK3 (human) (UniProt Q96BR1); conditions: compound 10.0 µM
PKN1 (human) = PKN1 (human) (UniProt Q16512); conditions: compound 10.0 µM
AURKB (human) = AURKB (human) (UniProt Q96GD4); conditions: compound 10.0 µM
Sequence of AURKB (human) (Q96GD4 whole entry, looked up): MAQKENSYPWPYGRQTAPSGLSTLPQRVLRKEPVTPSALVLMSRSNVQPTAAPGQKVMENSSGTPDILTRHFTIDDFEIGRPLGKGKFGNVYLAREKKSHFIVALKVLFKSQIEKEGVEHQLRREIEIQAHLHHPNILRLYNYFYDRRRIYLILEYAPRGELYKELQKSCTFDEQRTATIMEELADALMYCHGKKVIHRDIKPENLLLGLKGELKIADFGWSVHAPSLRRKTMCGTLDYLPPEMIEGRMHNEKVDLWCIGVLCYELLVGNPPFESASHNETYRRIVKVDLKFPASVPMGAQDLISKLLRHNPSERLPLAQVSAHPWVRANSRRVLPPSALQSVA

PRKCI (human) = PRKCI (human) (UniProt P41743); conditions: compound 10.0 µM
RPS6KA2 KD1 (human) = RPS6KA2 KD1 (human) (UniProt Q15349); conditions: compound 10.0 µM
Sequence of RPS6KA2 KD1 (human) (Q15349 whole entry, looked up): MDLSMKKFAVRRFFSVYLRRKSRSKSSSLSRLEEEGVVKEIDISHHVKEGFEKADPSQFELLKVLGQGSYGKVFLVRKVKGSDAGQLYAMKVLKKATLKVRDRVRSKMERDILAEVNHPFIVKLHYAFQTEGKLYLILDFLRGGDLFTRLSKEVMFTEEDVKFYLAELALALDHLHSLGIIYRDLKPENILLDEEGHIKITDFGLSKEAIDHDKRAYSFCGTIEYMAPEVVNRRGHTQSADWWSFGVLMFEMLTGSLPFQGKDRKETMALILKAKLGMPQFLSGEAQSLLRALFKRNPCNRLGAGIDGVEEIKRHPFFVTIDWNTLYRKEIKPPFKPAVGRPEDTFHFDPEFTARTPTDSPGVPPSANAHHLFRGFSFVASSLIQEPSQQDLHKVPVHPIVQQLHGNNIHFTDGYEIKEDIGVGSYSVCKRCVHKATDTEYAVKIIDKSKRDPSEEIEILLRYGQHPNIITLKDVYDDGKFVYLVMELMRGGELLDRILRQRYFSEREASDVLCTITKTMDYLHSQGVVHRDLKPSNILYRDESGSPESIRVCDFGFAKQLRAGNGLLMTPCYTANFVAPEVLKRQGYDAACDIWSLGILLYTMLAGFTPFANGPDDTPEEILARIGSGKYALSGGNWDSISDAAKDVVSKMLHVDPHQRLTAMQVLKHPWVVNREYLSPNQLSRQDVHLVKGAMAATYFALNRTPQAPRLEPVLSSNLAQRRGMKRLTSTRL

PRKCG (human) = PRKCG (human) (UniProt P05129); conditions: compound 10.0 µM
PRKX (human) = PRKX (human) (UniProt P51817); conditions: compound 10.0 µM
Sequence of PRKX (human) (P51817 whole entry, looked up): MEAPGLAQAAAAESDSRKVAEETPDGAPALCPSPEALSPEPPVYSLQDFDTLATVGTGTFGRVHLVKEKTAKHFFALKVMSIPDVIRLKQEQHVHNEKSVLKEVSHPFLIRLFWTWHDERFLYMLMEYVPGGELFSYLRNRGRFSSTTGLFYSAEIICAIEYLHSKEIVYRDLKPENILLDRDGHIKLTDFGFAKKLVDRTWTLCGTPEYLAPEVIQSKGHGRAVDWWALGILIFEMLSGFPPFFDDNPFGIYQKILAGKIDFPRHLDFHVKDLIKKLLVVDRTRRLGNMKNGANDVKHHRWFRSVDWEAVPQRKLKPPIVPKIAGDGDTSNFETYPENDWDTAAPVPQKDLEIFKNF

PRKCH (human) = PRKCH (human) (UniProt P24723); conditions: compound 10.0 µM
RPS6KA4 KD1 (human) = RPS6KA4 KD1 (human) (UniProt O75676); conditions: compound 10.0 µM
PDPK1 (human) = PDPK1 (human) (UniProt O15530); conditions: compound 10.0 µM
Sequence of PDPK1 (human) (O15530 whole entry, looked up): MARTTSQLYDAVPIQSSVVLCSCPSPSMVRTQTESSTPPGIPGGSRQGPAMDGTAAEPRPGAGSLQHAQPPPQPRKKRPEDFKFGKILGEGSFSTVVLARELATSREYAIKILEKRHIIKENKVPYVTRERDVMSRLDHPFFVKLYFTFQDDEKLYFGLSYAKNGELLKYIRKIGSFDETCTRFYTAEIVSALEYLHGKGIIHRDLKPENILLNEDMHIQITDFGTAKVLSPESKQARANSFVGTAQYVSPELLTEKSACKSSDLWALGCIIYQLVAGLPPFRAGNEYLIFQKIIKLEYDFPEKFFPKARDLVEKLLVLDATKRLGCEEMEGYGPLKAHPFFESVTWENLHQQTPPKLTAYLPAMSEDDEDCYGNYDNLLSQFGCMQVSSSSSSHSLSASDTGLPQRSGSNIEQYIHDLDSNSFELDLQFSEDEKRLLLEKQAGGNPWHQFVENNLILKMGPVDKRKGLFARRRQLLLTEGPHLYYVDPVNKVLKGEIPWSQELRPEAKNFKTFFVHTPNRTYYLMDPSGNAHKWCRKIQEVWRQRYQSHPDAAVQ

PRKACB (human) = PRKACB (human) (UniProt P22694); conditions: compound 10.0 µM
SGK2 (human) = SGK2 (human) (UniProt Q9HBY8); conditions: compound 10.0 µM
Sequence of SGK2 (human) (Q9HBY8 whole entry, looked up): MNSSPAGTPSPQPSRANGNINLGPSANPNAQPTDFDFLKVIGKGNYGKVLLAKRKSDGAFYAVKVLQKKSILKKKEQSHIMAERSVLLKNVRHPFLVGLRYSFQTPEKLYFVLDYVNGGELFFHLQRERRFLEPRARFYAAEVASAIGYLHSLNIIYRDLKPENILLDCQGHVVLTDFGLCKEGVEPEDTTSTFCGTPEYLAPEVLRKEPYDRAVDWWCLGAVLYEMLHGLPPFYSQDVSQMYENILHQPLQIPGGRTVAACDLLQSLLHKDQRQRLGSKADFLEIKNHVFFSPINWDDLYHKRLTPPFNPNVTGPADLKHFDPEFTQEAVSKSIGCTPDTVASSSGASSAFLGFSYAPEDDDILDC

RPS6KA5 KD1 (human) = RPS6KA5 KD1 (human) (UniProt O75582); conditions: compound 10.0 µM
AURKA (human) = AURKA (human) (UniProt O14965); conditions: compound 10.0 µM
DMPK (human) = DMPK (human) (UniProt Q09013); conditions: compound 10.0 µM
RPS6KA6 KD1 (human) = RPS6KA6 KD1 (human) (UniProt Q9UK32); conditions: compound 10.0 µM
STK32B (human) = STK32B (human) (UniProt Q9NY57); conditions: compound 10.0 µM
Sequence of STK32B (human) (Q9NY57 whole entry, looked up): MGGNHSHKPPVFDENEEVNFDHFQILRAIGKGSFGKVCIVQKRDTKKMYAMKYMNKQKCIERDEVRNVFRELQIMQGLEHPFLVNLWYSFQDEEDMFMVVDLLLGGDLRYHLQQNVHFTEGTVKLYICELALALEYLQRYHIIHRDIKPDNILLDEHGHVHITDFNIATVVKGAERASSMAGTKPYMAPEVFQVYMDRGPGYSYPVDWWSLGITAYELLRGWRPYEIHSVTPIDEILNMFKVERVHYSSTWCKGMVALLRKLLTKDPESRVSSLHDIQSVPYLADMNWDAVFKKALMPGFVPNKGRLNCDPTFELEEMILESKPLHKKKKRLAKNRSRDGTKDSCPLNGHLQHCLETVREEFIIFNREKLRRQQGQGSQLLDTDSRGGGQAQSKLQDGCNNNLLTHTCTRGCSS

RPS6KA3 KD1 (human) = RPS6KA3 KD1 (human) (UniProt P51812); conditions: compound 10.0 µM
PRKCD (human) = PRKCD (human) (UniProt Q05655); conditions: compound 10.0 µM
AKT2 (human) = AKT2 (human) (UniProt P31751); conditions: compound 10.0 µM
RPS6KA1 KD1 (human) = RPS6KA1 KD1 (human) (UniProt Q15418); conditions: compound 10.0 µM
Sequence of RPS6KA1 KD1 (human) (Q15418 whole entry, looked up): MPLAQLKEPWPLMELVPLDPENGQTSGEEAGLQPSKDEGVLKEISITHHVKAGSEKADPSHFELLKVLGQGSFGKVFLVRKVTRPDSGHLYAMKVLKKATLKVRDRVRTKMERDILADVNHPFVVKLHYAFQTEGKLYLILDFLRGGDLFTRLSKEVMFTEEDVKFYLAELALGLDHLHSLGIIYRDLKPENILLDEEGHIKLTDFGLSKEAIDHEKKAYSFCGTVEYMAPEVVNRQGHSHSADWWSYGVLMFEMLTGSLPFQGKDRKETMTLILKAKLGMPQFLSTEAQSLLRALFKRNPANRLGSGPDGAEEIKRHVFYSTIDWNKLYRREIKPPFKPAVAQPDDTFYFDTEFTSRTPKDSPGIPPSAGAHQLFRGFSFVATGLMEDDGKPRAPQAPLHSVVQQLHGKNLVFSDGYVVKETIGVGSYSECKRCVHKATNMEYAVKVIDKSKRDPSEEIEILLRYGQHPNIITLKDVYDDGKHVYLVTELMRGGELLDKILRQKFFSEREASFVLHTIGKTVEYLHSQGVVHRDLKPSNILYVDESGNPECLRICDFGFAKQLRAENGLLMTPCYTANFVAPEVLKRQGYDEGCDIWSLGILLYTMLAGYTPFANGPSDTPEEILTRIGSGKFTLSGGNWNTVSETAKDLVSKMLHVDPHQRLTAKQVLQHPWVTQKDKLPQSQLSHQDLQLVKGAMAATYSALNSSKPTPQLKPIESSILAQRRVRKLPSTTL

AKT3 (human) = AKT3 (human) (UniProt Q9Y243); conditions: compound 10.0 µM
AURKC (human) = AURKC (human) (UniProt Q9UQB9); conditions: compound 10.0 µM
PRKACA (mouse) = conditions: compound 10.0 µM; accession and sequence are those of the human protein
AKT1 (human) = AKT1 (human) (UniProt P31749); conditions: compound 10.0 µM

Sequence of PRKCE (human) (Q02156 whole entry, looked up): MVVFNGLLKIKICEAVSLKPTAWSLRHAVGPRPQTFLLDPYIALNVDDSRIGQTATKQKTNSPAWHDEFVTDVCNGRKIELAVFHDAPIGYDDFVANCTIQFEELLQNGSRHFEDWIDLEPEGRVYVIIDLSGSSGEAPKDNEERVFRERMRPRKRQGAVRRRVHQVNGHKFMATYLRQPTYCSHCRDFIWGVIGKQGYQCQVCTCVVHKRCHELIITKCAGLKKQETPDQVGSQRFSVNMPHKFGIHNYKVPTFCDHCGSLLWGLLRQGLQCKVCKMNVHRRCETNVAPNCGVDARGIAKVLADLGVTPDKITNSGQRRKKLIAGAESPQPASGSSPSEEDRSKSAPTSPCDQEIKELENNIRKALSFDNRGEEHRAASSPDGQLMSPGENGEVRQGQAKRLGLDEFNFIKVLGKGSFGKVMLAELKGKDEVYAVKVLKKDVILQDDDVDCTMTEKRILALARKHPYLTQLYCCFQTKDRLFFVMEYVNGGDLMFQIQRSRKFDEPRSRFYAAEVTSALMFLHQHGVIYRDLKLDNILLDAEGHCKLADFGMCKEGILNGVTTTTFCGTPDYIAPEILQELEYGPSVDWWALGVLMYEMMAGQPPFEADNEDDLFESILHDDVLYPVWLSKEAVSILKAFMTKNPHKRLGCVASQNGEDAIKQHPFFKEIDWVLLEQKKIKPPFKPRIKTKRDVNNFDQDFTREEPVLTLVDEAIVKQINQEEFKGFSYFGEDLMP

Row | SMILES | inhibition (PRKCE (human)) [%] | inhibition (PRKCQ (human)) [%] | inhibition (SGK3 (human)) [%] | inhibition (PKN1 (human)) [%] | inhibition (AURKB (human)) [%] | inhibition (PRKCI (human)) [%] | inhibition (RPS6KA2 KD1 (human)) [%] | inhibition (PRKCG (human)) [%] | inhibition (PRKX (human)) [%] | inhibition (PRKCH (human)) [%] | inhibition (RPS6KA4 KD1 (human)) [%] | inhibition (PDPK1 (human)) [%] | inhibition (PRKACB (human)) [%] | inhibition (SGK2 (human)) [%] | inhibition (RPS6KA5 KD1 (human)) [%] | inhibition (AURKA (human)) [%] | inhibition (DMPK (human)) [%] | inhibition (RPS6KA6 KD1 (human)) [%] | inhibition (STK32B (human)) [%] | inhibition (RPS6KA3 KD1 (human)) [%] | also measured
1 | O=C1NC(=O)C(c2ccccc2[N+](=O)[O-])=C1Nc1ccc(O)c(Cl)c1 | 4 | 0 | 0 | 0 | 12 | 0 | 0 | 0 | 2 | 2 | 0 | 0 | 5 | 0 | 0 | 6 | 0 | 9 | 0 | 0 | inhibition (PRKCD (human)): 9%; inhibition (AKT2 (human)): 0%; inhibition (RPS6KA1 KD1 (human)): 7%; inhibition (AKT3 (human)): 0%; inhibition (AURKC (human)): 23%; inhibition (PRKACA (mouse)): 0%; inhibition (AKT1 (human)): 0%
2 | COc1cc(CC2C(=O)OC[C@@H]2Cc2ccc(OC)c(OC)c2)ccc1O (stereo partly specified) | 0 | 0 | 1 | 0 | 0 | 0 | 0 | 0 | 0 | 0 | 0 | 0 | 1 | 7 | 0 | 11 | 0 | 12 | 15 | 6 | inhibition (PRKCD (human)): 0%; inhibition (AKT2 (human)): 0%; inhibition (RPS6KA1 KD1 (human)): 2%; inhibition (AKT3 (human)): 0%; inhibition (AURKC (human)): 6%; inhibition (PRKACA (mouse)): 0%; inhibition (AKT1 (human)): 0%
3 | Cc1cc2nc3c(=O)[nH]c(=O)nc-3n(C)c2cc1C=O | 13 | 5 | 0 | 0 | 3 | 0 | 8 | 9 | 2 | 8 | 0 | 0 | 21 | 3 | 8 | 5 | 0 | 1 | 18 | 0 | inhibition (PRKCD (human)): 31%; inhibition (AKT2 (human)): 0%; inhibition (RPS6KA1 KD1 (human)): 0%; inhibition (AKT3 (human)): 0%; inhibition (AURKC (human)): 12%; inhibition (PRKACA (mouse)): 11%; inhibition (AKT1 (human)): 24%
